# Data as given in patent US20190117716A1, “FATTY ACID COMPOSITION AND PHARMACEUTICAL PREPARATION AND APPLICATION THEREOF” (priority 2011, published 2019).
# Test: single fatty acids used alone (inventor's research)
# Conditions: any one fatty acid used alone, compared with the combination
row,Structure (SMILES),curative effect when used alone
1,CCCCCCCCCCCCCCCCCCCC(=O)O [arachidic acid],relatively unobvious
2,CCCCC/C=C\C/C=C\CCCCCCCC(=O)O [linoleic acid],relatively unobvious
3,CCCCCCCC/C=C\CCCCCCCC(=O)O [oleic acid],relatively unobvious
4,CCCCCCCCCCCCCCCC(=O)O [palmitic acid],relatively unobvious
5,CCCCCC/C=C\CCCCCCCC(=O)O [palmitoleic acid],relatively unobvious
6,CCCCCCCCCCCCCCCCCC(=O)O [stearic acid],relatively unobvious
